Laboratory results: PMC10850190, “Bifidobacterial GH146 β-L-arabinofuranosidase for the removal of β1,3-L-arabinofuranosides on plant glycans” (Applied Microbiology and Biotechnology, 2024)

Molecular target: T1, Bll1HypBA1 (Bifidobacterium longum, UniProt E8MGH8)
T1 construct: gene hypBA1; GH127 enzyme prepared as in earlier reports; homodimer
T1 sequence (E8MGH8 1-658): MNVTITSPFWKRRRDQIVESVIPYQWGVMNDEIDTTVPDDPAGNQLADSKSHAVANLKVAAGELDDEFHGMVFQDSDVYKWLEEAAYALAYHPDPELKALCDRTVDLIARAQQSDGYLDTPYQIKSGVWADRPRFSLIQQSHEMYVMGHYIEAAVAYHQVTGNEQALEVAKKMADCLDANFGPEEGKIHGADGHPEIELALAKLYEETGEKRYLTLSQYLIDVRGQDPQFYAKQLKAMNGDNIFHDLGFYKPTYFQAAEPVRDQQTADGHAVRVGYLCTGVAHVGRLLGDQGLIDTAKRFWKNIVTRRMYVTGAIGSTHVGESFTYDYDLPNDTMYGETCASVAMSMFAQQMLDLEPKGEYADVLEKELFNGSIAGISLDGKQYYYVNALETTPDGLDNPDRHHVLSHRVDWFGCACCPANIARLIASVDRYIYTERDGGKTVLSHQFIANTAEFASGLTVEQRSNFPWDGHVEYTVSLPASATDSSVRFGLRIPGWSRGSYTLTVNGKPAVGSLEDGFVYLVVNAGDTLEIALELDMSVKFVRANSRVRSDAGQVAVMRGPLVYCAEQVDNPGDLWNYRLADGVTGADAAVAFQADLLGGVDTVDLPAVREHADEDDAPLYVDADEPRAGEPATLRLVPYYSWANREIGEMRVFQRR
Test: TLC, released L-arabinose
Assay type: biochemical
Details: 50 mM sodium acetate pH 5.5; 37 °C; 16 h

SMILES | TLC, released L-arabinose
CO[C@@H]1O[C@@H](CO)[C@H](O)[C@H]1O[C@H]1O[C@@H](CO)[C@H](O)[C@H]1O [β2, Araf-β1,2-Araf-α-OMe] | Conversely, Bll1HypBA1 completely hydrolyzed these substrates
CO[C@@H]1O[C@@H](CO[C@H]2O[C@@H](CO)[C@H](O)[C@H]2O)[C@H](O)[C@H]1O [β5, Araf-β1,5-Araf-α-OMe] | Conversely, Bll1HypBA1 completely hydrolyzed these substrates
